Assay results from patent publication US20230127944A1, “BROAD-SPECTRUM CARBAPENEMS” (priority 2019, published 2023).
≈ marks a conversion by molar mass, not a printed value.

Key:
Assay type in all cases: cell-based
[1] = tested on: P. aeruginosa ΔmexAB-OprM (an efflux pump knockout); assay: broth microdilution MIC assay, P. aeruginosa ΔmexAB-OprM; details: Pseudomonas aeruginosa, read-out: MIC, P. aeruginosa ΔmexAB-OprM
Method in brief: (§1)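 Growth inhibition was measured by CLSI-based broth microdilution. Log-phase cultures in Mueller-Hinton broth with divalent cations were seeded at 5×10^5 CFU/mL into 2-fold serial compound dilutions and incubated 16-20 hours at 37° C before the MIC was scored by eye.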

[2] = tested on: S. aureus ATCC 33591 (methicillin-resistant); assay: broth microdilution MIC assay, S. aureus 33591; details: Staphylococcus aureus, ATCC33591; S. aureus 33591, methicillin-resistant; read-out: MIC, S. aureus 33591
Method in brief: as §1

S. aureus USA 600 = assay: broth microdilution MIC assay, S. aureus USA600; details: Staphylococcus aureus; S. aureus USA600 (MRSA); read-out: MIC, S. aureus USA600
Method in brief: as §1

[3] = tested on: P. aeruginosa 35151 (hyper-permeable strain); assay: broth microdilution MIC assay, P. aeruginosa 35151; details: Pseudomonas aeruginosa, read-out: MIC, P. aeruginosa 35151
Method in brief: as §1

P. aeruginosa Paeβ-17 = assay: broth microdilution MIC assay, P. aeruginosa Paeβ-17; details: Pseudomonas aeruginosa, read-out: MIC, P. aeruginosa Paeβ-17
Method in brief: as §1

[4] = tested on: E. coli ATCC 25922 (wild-type/QC strain); assay: broth microdilution MIC assay, E. coli 25922; details: Escherichia coli, ATCC25922; read-out: MIC, E. coli 25922
Method in brief: as §1

[5] = tested on: P. aeruginosa ATCC 27853 (wild-type/QC strain); assay: broth microdilution MIC assay, P. aeruginosa 27853; details: Pseudomonas aeruginosa, ATCC27853; read-out: MIC, P. aeruginosa 27853
Method in brief: as §1

S. aureus USA 300 = assay: broth microdilution MIC assay, S. aureus USA300; details: Staphylococcus aureus; S. aureus USA300 (MRSA); read-out: MIC, S. aureus USA300
Method in brief: as §1

| Structure (SMILES) | MIC [1] | MIC [2] | MIC (S. aureus USA 600) | MIC [3] | MIC (P. aeruginosa Paeβ-17) | MIC [4] | MIC [5] | MIC (S. aureus USA 300) |
| --- | --- | --- | --- | --- | --- | --- | --- | --- |
| C[C@@H](O)[C@H]1C(=O)N2C(C(=O)O)=C(S[C@@H]3CCN([C@H]4CC[C@H](CN)CC4)C3)[C@H](C)[C@H]12 [Example 58, (4R,5S,6S)-3-(((R)-1-((1R,4R)-4-(aminomethyl)cyclohexyl)pyrrolidin-3-yl)thio)-6-((R)-1-hydroxyethyl)-4-methyl-7-oxo-1-azabicyclo[3.2.0]hept-2-ene-2-carboxylic acid] | 1 to 4 µg/mL (≈ 2.36 to 9.44 µM) | 1 to 4 µg/mL (≈ 2.36 to 9.44 µM) | 1 to 4 µg/mL (≈ 2.36 to 9.44 µM) | < 1 µg/mL | 8 to 32 µg/mL (≈ 18.9 to 75.5 µM) | < 1 µg/mL | 1 to 4 µg/mL (≈ 2.36 to 9.44 µM) | 1 to 4 µg/mL (≈ 2.36 to 9.44 µM) |
| C[C@@H](O)[C@H]1C(=O)N2C(C(=O)O)=C(SC3CN([C@H]4CC[C@@H](NC(=N)N)C4)C3)[C@H](C)[C@H]12 [Example 9, (4R,5S,6S)-3-((1-((1S,3R)-3-guanidinocyclopentyl)azetidin-3-yl)thio)-6-((R)-1-hydroxyethyl)-4-methyl-7-oxo-1-azabicyclo[3.2.0]hept-2-ene-2-carboxylic acid] | < 1 µg/mL | 1 to 4 µg/mL (≈ 2.36 to 9.44 µM) | < 1 µg/mL | < 1 µg/mL | 8 to 32 µg/mL (≈ 18.9 to 75.6 µM) | < 1 µg/mL | 1 to 4 µg/mL (≈ 2.36 to 9.44 µM) | < 1 µg/mL |
| C[C@@H](O)[C@H]1C(=O)N2C(C(=O)O)=C(SC3CN(Cc4ccc(N)nc4)C3)[C@H](C)[C@H]12 [Example 23, (4R,5S,6S)-3-((1-((6-aminopyridin-3-yl)methyl)azetidin-3-yl)thio)-6-((R)-1-hydroxyethyl)-4-methyl-7-oxo-1-azabicyclo[3.2.0]hept-2-ene-2-carboxylic acid] | 1 to 4 µg/mL (≈ 2.47 to 9.89 µM) | 8 to 32 µg/mL (≈ 19.8 to 79.1 µM) | 1 to 4 µg/mL (≈ 2.47 to 9.89 µM) | < 1 µg/mL | > 32 µg/mL | < 1 µg/mL | 8 to 32 µg/mL (≈ 19.8 to 79.1 µM) | 1 to 4 µg/mL (≈ 2.47 to 9.89 µM) |
| C[C@@H](O)[C@H]1C(=O)N2C(C(=O)O)=C(SC3CN([C@@H]4CCC[C@H](N)C4)C3)[C@H](C)[C@H]12 [Example 14, (4R,5S,6S)-3-((1-((1R,3S)-3-aminocyclohexyl)azetidin-3-yl)thio)-6-((R)-1-hydroxyethyl)-4-methyl-7-oxo-1-azabicyclo[3.2.0]hept-2-ene-2-carboxylic acid] | 1 to 4 µg/mL (≈ 2.53 to 10.1 µM) | 1 to 4 µg/mL (≈ 2.53 to 10.1 µM) | 1 to 4 µg/mL (≈ 2.53 to 10.1 µM) | < 1 µg/mL | 8 to 32 µg/mL (≈ 20.2 to 80.9 µM) | < 1 µg/mL | 1 to 4 µg/mL (≈ 2.53 to 10.1 µM) | 1 to 4 µg/mL (≈ 2.53 to 10.1 µM) |
| C[C@@H](O)[C@H]1C(=O)N2C(C(=O)O)=C(SC3CN([C@H]4CC[C@@H](N)C4)C3)[C@H](C)[C@H]12 [Example 7, (4R,5S,6S)-3-((1-((1S,3R)-3-aminocyclopentyl)azetidin-3-yl)thio)-6-((R)-1-hydroxyethyl)-4-methyl-7-oxo-1-azabicyclo[3.2.0]hept-2-ene-2-carboxylic acid] | 1 to 4 µg/mL (≈ 2.62 to 10.5 µM) | 8 to 32 µg/mL (≈ 21 to 83.9 µM) | 1 to 4 µg/mL (≈ 2.62 to 10.5 µM) | < 1 µg/mL | 8 to 32 µg/mL (≈ 21 to 83.9 µM) | < 1 µg/mL | 8 to 32 µg/mL (≈ 21 to 83.9 µM) | 1 to 4 µg/mL (≈ 2.62 to 10.5 µM) |
| C[C@@H](O)[C@H]1C(=O)N2C(C(=O)O)=C(SC3CN([C@H]4CC[C@H](NC(=N)N)C4)C3)[C@H](C)[C@H]12 [Example 11, (4R,5S,6S)-3-((1-((1S,3S)-3-guanidinocyclopentyl)azetidin-3-yl)thio)-6-((R)-1-hydroxyethyl)-4-methyl-7-oxo-1-azabicyclo[3.2.0]hept-2-ene-2-carboxylic acid] | 1 to 4 µg/mL (≈ 2.36 to 9.44 µM) | 1 to 4 µg/mL (≈ 2.36 to 9.44 µM) | < 1 µg/mL | < 1 µg/mL | 8 to 32 µg/mL (≈ 18.9 to 75.6 µM) | < 1 µg/mL | 1 to 4 µg/mL (≈ 2.36 to 9.44 µM) | 1 to 4 µg/mL (≈ 2.36 to 9.44 µM) |
| C[C@@H](O)[C@H]1C(=O)N2C(C(=O)O)=C(SC3CN([C@H]4CC[C@H](CNC(=N)N)CC4)C3)[C@H](C)[C@H]12 [Example 66, (4R,5S,6S)-3-((1-((1R,4R)-4-(guanidinomethyl)cyclohexyl)azetidin-3-yl)thio)-6-((R)-1-hydroxyethyl)-4-methyl-7-oxo-1-azabicyclo[3.2.0]hept-2-ene-2-carboxylic acid] | 1 to 4 µg/mL (≈ 2.21 to 8.86 µM) | 1 to 4 µg/mL (≈ 2.21 to 8.86 µM) | 1 to 4 µg/mL (≈ 2.21 to 8.86 µM) | < 1 µg/mL | 8 to 32 µg/mL (≈ 17.7 to 70.9 µM) | < 1 µg/mL | 1 to 4 µg/mL (≈ 2.21 to 8.86 µM) | 1 to 4 µg/mL (≈ 2.21 to 8.86 µM) |
| C[C@@H](O)[C@H]1C(=O)N2C(C(=O)O)=C(SC3CN([C@H]4C[C@H](N)C4)C3)[C@H](C)[C@H]12 [Example 4, (4R,5S,6S)-3-((1-((1r,3R)-3-aminocyclobutyl)azetidin-3-yl)thio)-6-((R)-1-hydroxyethyl)-4-methyl-7-oxo-1-azabicyclo[3.2.0]hept-2-ene-2-carboxylic acid] | 1 to 4 µg/mL (≈ 2.72 to 10.9 µM) | 8 to 32 µg/mL (≈ 21.8 to 87.1 µM) | 1 to 4 µg/mL (≈ 2.72 to 10.9 µM) | < 1 µg/mL | > 32 µg/mL | < 1 µg/mL | 8 to 32 µg/mL (≈ 21.8 to 87.1 µM) | 1 to 4 µg/mL (≈ 2.72 to 10.9 µM) |
| C[C@@H](O)[C@H]1C(=O)N2C(C(=O)O)=C(S[C@@H]3CCN([C@H]4CC[C@H](NC(=N)N)CC4)C3)[C@H](C)[C@H]12 [Example 27, (4R,5S,6S)-3-(((R)-1-((1R,4R)-4-guanidinocyclohexyl)pyrrolidin-3-yl)thio)-6-((R)-1-hydroxyethyl)-4-methyl-7-oxo-1-azabicyclo[3.2.0]hept-2-ene-2-carboxylic acid] | 1 to 4 µg/mL (≈ 2.21 to 8.86 µM) | 1 to 4 µg/mL (≈ 2.21 to 8.86 µM) | 1 to 4 µg/mL (≈ 2.21 to 8.86 µM) | < 1 µg/mL | 8 to 32 µg/mL (≈ 17.7 to 70.9 µM) | < 1 µg/mL | 8 to 32 µg/mL (≈ 17.7 to 70.9 µM) | 1 to 4 µg/mL (≈ 2.21 to 8.86 µM) |
| C[C@@H](O)[C@H]1C(=O)N2C(C(=O)O)=C(S[C@@H]3CCN(C[C@H]4CC[C@@H](NC(=N)N)CC4)C3)[C@H](C)[C@H]12 [Example 33, (4R,5S,6S)-3-(((R)-1-(((1S,4S)-4-guanidinocyclohexyl)methyl)pyrrolidin-3-yl)thio)-6-((R)-1-hydroxyethyl)-4-methyl-7-oxo-1-azabicyclo[3.2.0]hept-2-ene-2-carboxylic acid] | 1 to 4 µg/mL (≈ 2.15 to 8.59 µM) | 1 to 4 µg/mL (≈ 2.15 to 8.59 µM) | 1 to 4 µg/mL (≈ 2.15 to 8.59 µM) | < 1 µg/mL | 8 to 32 µg/mL (≈ 17.2 to 68.7 µM) | < 1 µg/mL | 1 to 4 µg/mL (≈ 2.15 to 8.59 µM) | < 1 µg/mL |
| C[C@@H](O)[C@H]1C(=O)N2C(C(=O)O)=C(S[C@H]3C[C@H](N[C@H]4CC[C@@H](N)C4)C3)[C@H](C)[C@H]12 [Example 74, (4R,5S,6S)-3-(((1S,3R)-3-(((1S,3R)-3-aminocyclopentyl)amino)cyclobutyl)thio)-6-((R)-1-hydroxyethyl)-4-methyl-7-oxo-1-azabicyclo[3.2.0]hept-2-ene-2-carboxylic acid] | 8 to 32 µg/mL (≈ 20.2 to 80.9 µM) | 8 to 32 µg/mL (≈ 20.2 to 80.9 µM) | 1 to 4 µg/mL (≈ 2.53 to 10.1 µM) | < 1 µg/mL | 1 to 4 µg/mL (≈ 2.53 to 10.1 µM) | < 1 µg/mL | 8 to 32 µg/mL (≈ 20.2 to 80.9 µM) | 8 to 32 µg/mL (≈ 20.2 to 80.9 µM) |
| C[C@@H](O)[C@H]1C(=O)N2C(C(=O)O)=C(S[C@H]3C[C@@H](N[C@@H]4CC[C@H](N)C4)C3)[C@H](C)[C@H]12 [Example 77, (4R,5S,6S)-3-(((1S,3S)-3-(((1R,3S)-3-aminocyclopentyl)amino)cyclobutyl)thio)-6-((R)-1-hydroxyethyl)-4-methyl-7-oxo-1-azabicyclo[3.2.0]hept-2-ene-2-carboxylic acid] | 8 to 32 µg/mL (≈ 20.2 to 80.9 µM) | 8 to 32 µg/mL (≈ 20.2 to 80.9 µM) | 1 to 4 µg/mL (≈ 2.53 to 10.1 µM) | < 1 µg/mL | 1 to 4 µg/mL (≈ 2.53 to 10.1 µM) | < 1 µg/mL | 1 to 4 µg/mL (≈ 2.53 to 10.1 µM) | 1 to 4 µg/mL (≈ 2.53 to 10.1 µM) |
| C[C@@H](O)[C@H]1C(=O)N2C(C(=O)O)=C(S[C@H]3C[C@H](N[C@H]4CC[C@@H](N)CC4)C3)[C@H](C)[C@H]12 [Example 60, (4R,5S,6S)-3-(((1R,3R)-3-(((1S,4S)-4-aminocyclohexyl)amino)cyclobutyl)thio)-6-((R)-1-hydroxyethyl)-4-methyl-7-oxo-1-azabicyclo[3.2.0]hept-2-ene-2-carboxylic acid] | 1 to 4 µg/mL (≈ 2.44 to 9.77 µM) | 8 to 32 µg/mL (≈ 19.5 to 78.1 µM) | 1 to 4 µg/mL (≈ 2.44 to 9.77 µM) | < 1 µg/mL | 8 to 32 µg/mL (≈ 19.5 to 78.1 µM) | < 1 µg/mL | 8 to 32 µg/mL (≈ 19.5 to 78.1 µM) | 1 to 4 µg/mL (≈ 2.44 to 9.77 µM) |
